Two compounds from patent US6187907A, “Triple helix coil template having a biologically active ligand” (priority 1998, dated 2001) can be followed below.

As a reminder, the IC50 is the concentration that gives 50% inhibition.

The experiment deals with Human gelatinase. In words: Inhibition of trypsin-activated human gelatinase, fluorogenic Mca peptide substrate. The following applies: substrate 10 μM, 37° C., 60 minutes, 5 minutes preincubation; read-out: IC50 against activated gelatinase. It counts as biochemical. On the procedure: Human gelatinase was activated with trypsin as follows. A reaction mixture was prepared in Tris buffer (pH 7.5) containing 20 mM Tris-HCl, 0.15 N NaCl, 4 μg/ml trypsin, 3 nM gelatinase and 5 mM CaCl2. The reaction mixture was incubated at 37° C. for 60 minutes and then soybean trypsin inhibitor was added at 44 μg/ml to quench the reaction.
The substrate was added at final 10 μM and was then further incubated at 37° C. for 60 minutes. The reaction was terminated by the addition of 750 μl of 0.1 N sodium acetate buffer (pH 4.0). The hydrolysis of the substrate was assessed by fluorescence, excitation at 328 nm and emission of 393 nm, with a Perkin-Elmer Fluorimeter LS-50B.

Bridge positions count the residues as written; N and C are the ends. Square brackets hold non-standard residues; d marks the D form. Peptide text beside a SMILES is read from it. I, II: the chains in the order shown. * marks the point of attachment. Succinyl(2R-iBu,4-NHOH) = CC(C)C[C@H](CC(=O)NO)C(=O)*; Hyp = O=C(O)[C@@H]1C[C@@H](O)CN1; Ahx = NCCCCCC(=O)O

Consider “I: {Succinyl(2R-iBu,4-NHOH)}-WGP[Hyp]GP[Hyp]GPPSGG[Ahx]KKG-NH2 / II: {Succinyl(2R-iBu,4-NHOH)}-WGP[Hyp]GP[Hyp]GPPSGG[Ahx] / III: {Succinyl(2R-iBu,4-NHOH)}-WGP[Hyp]GP[Hyp]GPPSGG[Ahx] (amide I:15-II:C, I:16-III:C) [NHT2-L]”, for which the IC50 was found to be 24 nM.

Take `CC(C)C[C@H](CC(=O)NO)C(=O)N[C@@H](Cc1c[nH]c2ccccc12)C(=O)NCC(=O)N1CCC[C@H]1C(=O)N1C[C@H](O)C[C@H]1C(=O)NCC(=O)N1CCC[C@H]1C(=O)N1CCC[C@H]1C(=O)N[C@@H](CO)C(=O)NCC(=O)NCC(=O)NCCCCCC(=O)NCCCC[C@H](NC(=O)CCCCCNC(=O)CNC(=O)CNC(=O)[C@H](CO)NC(=O)[C@@H]1CCCN1C(=O)[C@@H]1CCCN1C(=O)CNC(=O)[C@@H]1C[C@@H](O)CN1C(=O)[C@@H]1CCCN1C(=O)CNC(=O)[C@H](Cc1c[nH]c2ccccc12)NC(=O)[C@@H](CC(=O)NO)CC(C)C)C(=O)N[C@@H](CCCCNC(=O)CCCCCNC(=O)CNC(=O)CNC(=O)[C@H](CO)NC(=O)[C@@H]1CCCN1C(=O)[C@@H]1CCCN1C(=O)CNC(=O)[C@@H]1C[C@@H](O)CN1C(=O)[C@@H]1CCCN1C(=O)CNC(=O)[C@H](Cc1c[nH]c2ccccc12)NC(=O)[C@@H](CC(=O)NO)CC(C)C)C(=O)NCC(N)=O` [NHT1-L] (I: {Succinyl(2R-iBu,4-NHOH)}-WGP[Hyp]GPPSGG[Ahx]KKG-NH2 / II: {Succinyl(2R-iBu,4-NHOH)}-WGP[Hyp]GPPSGG[Ahx] / III: {Succinyl(2R-iBu,4-NHOH)}-WGP[Hyp]GPPSGG[Ahx]; amide I:12-II:C, I:13-III:C): the IC50 came to 2.3 nM.
